System: total serum bilirubin (TSB)
Assay: Phase 2b trial: total serum bilirubin (TSB), adjusted and unadjusted, change from baseline
Assay type: in vivo, human
Set-up: total serum bilirubin / total serum bilirubin, Delta (change from baseline) / Change from baseline of total serum bilirubin: unit not given here
Conditions: for change from baseline in adjusted TSB, LS mean difference versus placebo, MMRM / change from baseline in adjusted TSB, LS means (SEM), MMRM: observed case
Protocol: Three cohorts of subjects were recruited. This clinical study was designed to evaluate safety and efficacy parameters in each cohort.
Scheduled assessments (including TSB) occurred before treatment and at 0.75 and 2 hours (or 1.5 and 3 hours, depending on PK blood sampling assignment); 6, 12, 24, 48, and 72 hours; and 14 and 30 (except TSB) days after treatment or early termination.
The primary efficacy endpoint was the change in adjusted TSB from baseline to 48 hours after treatment. The adjusted TSB was a calculation of the percentage variance of the TSB level from the age specific threshold for PT initiation per the AAP Guidelines, i.e., an indication of the distance below the PT threshold by time.
The Secondary Efficacy Endpoints were the change from baseline in unadjusted TSB at 48 hours after treatment, change from baseline in adjusted and unadjusted TSB at various other time points after treatment, percent change from baseline in unadjusted TSB, proportion of subjects who require PT/exchange transfusion (ET), time to PT/ET, duration of PT and time to hospital discharge.
Intent-to-treat population (ITT): Defined as all subjects who were randomly assigned treatment in the clinical study, had received IMP, and had at least 1 post baseline TSB measurement during the first 48 hours after treatment. Subjects were summarized based on randomized treatment.
Analysis of Efficacy Parameters: The primary efficacy analysis applied the analysis of covariance (ANCOVA) method to determine if there was a significant difference between treatment groups in change in adjusted TSB levels from baseline to 48 hours post baseline after controlling for the effects of gestational age and adjusted baseline TSB levels. If assumptions of ANCOVA appeared to be violated, a Wilcoxon rank-sum test could be performed instead. Time-to-event variables were analyzed using the Kaplan-Meier method, and Kaplan-Meier survival curves were presented.

[1] = 4.5 mg/kg IM, 24 h, ITT, LOCF, ANCOVA
[2] = 4.5 mg/kg IM, 48 h/early termination, ITT, LOCF
[3] = 4.5 mg/kg IM, 48 h, ITT, LOCF, ANCOVA
[4] = 4.5 mg/kg IM, 48 hours, intent to treat, preliminary data
[5] = 4.5 mg/kg IM, 72 h, ITT, LOCF, ANCOVA
[6] = 4.5 mg/kg IM, 14 days/early termination, ITT, LOCF
[7] = 4.5 mg/kg IM, 14 days/early termination, ITT, LOCF, ANCOVA
[8] = 4.5 mg/kg versus the placebo group, 48 Hours/Early termination, PP Population, ANCOVA
[9] = 4.5 mg/kg, 48 Hours/Early termination, PP Population, LOCF
[10] = 4.5 mg/kg, 6 hrs, unadjusted TSB, ITT Population
[11] = 4.5 mg/kg, 12 hrs, unadjusted TSB, ITT Population
[12] = 4.5 mg/kg, 24 hrs, unadjusted TSB, ITT Population
[13] = 4.5 mg/kg, 48 hrs, unadjusted TSB, ITT Population
[14] = 4.5 mg/kg, baseline, PP Population
[15] = 4.5 mg/kg, baseline, unadjusted TSB, ITT Population

tin IV mesoporphyrin IX dichloride [Stannsoporfin]
change from baseline in adjusted TSB, Median (4.5 mg/kg IM, 24 h, ITT, LOCF): −11.15%
change from baseline in unadjusted TSB, Mean (SD) (4.5 mg/kg IM, 24 h, ITT, LOCF): 0.93 (1.990) mg/dL
change from baseline in unadjusted TSB, Median (4.5 mg/kg IM, 24 h, ITT, LOCF): 1.20 mg/dL
unadjusted TSB, Mean (SD) (4.5 mg/kg IM, 24 h, ITT, LOCF): 10.52 (2.668) mg/dL
unadjusted TSB, Median (4.5 mg/kg IM, 24 h, ITT, LOCF): 9.66 mg/dL
change from baseline in adjusted TSB, LS mean (SEM) [1]: −11.59 (5.674) %
change from baseline in adjusted TSB, LS mean difference versus placebo [1]: −11.50%
change from baseline in unadjusted TSB, LS Mean (SEM) [1]: 1.05 (0.665) mg/dL
change from baseline in unadjusted TSB, LS Mean Difference versus placebo [1]: -1.70 mg/dL
change from baseline in adjusted TSB, LS mean difference versus placebo, MMRM (4.5 mg/kg IM, 24 h, ITT): −14.70%
change from baseline in adjusted TSB, LS means (SEM), MMRM (4.5 mg/kg IM, 24 h, ITT): −16.26 (5.495) %
adjusted TSB, Mean (SD) [2]: −34.14 (14.733) %
adjusted TSB, Median [2]: −32.00%
change from baseline in adjusted TSB, Mean (SD) (4.5 mg/kg IM, 48 h, ITT, LOCF): −24.95 (19.261) %
change from baseline in adjusted TSB, Median (4.5 mg/kg IM, 48 h, ITT, LOCF): −19.95%
change from baseline in unadjusted TSB, Mean (SD) (4.5 mg/kg IM, 48 h, ITT, LOCF): 0.80 (2.788) mg/dL
change from baseline in unadjusted TSB, Median (4.5 mg/kg IM, 48 h, ITT, LOCF): 1.45 mg/dL
unadjusted TSB, Mean (SD) (4.5 mg/kg IM, 48 h, ITT, LOCF): 10.39 (2.650) mg/dL
unadjusted TSB, Median (4.5 mg/kg IM, 48 h, ITT, LOCF): 10.35 mg/dL
change from baseline in adjusted TSB, LS mean (SEM) (primary endpoint) [3]: −16.51 (6.925) %
change from baseline in adjusted TSB, LS mean difference versus placebo [3]: −14.93%
change from baseline in unadjusted TSB, LS Mean (SEM) [3]: 1.60 (1.020) mg/dL
change from baseline in unadjusted TSB, LS Mean Difference versus placebo [3]: -2.63 mg/dL
change from baseline in adjusted TSB, LS mean (SEM) (primary endpoint) (4.5 mg/kg IM, 48 h, ITT, LOCF, ANCOVA, listed as stannsoporfin): 16.5%
change from baseline in adjusted TSB, LS mean difference versus placebo, MMRM (4.5 mg/kg IM, 48 h, ITT): −20.66%
change from baseline in adjusted TSB, LS means (SEM), MMRM (4.5 mg/kg IM, 48 h, ITT): −27.34 (7.287) %
total serum bilirubin [4]: 10.39 ± 2.7
total serum bilirubin, Delta (change from baseline) [4]: 0.80 ± 2.8
total serum bilirubin, Delta (change from baseline) (4.5 mg/kg IM, 48 hours, treated per protocol, preliminary data): 0.04 ± 3.1
adjusted TSB, Mean (SD) (4.5 mg/kg IM, 72 h/early termination, ITT, LOCF): −38.38 (16.637) %
change from baseline in adjusted TSB, Mean (SD) (4.5 mg/kg IM, 72 h, ITT, LOCF): −29.19 (19.225) %
change from baseline in adjusted TSB, Median (4.5 mg/kg IM, 72 h, ITT, LOCF): −21.45%
change from baseline in unadjusted TSB, Mean (SD) (4.5 mg/kg IM, 72 h, ITT, LOCF): 0.15 (3.740) mg/dL
change from baseline in unadjusted TSB, Median (4.5 mg/kg IM, 72 h, ITT, LOCF): 1.90 mg/dL
unadjusted TSB, Mean (SD) (4.5 mg/kg IM, 72 h, ITT, LOCF): 9.73 (3.672) mg/dL
unadjusted TSB, Median (4.5 mg/kg IM, 72 h, ITT, LOCF): 11.15 mg/dL
change from baseline in adjusted TSB, LS mean (SEM) [5]: −19.00 (8.184) %
change from baseline in adjusted TSB, LS mean difference versus placebo [5]: −14.25%
change from baseline in unadjusted TSB, LS Mean (SEM) [5]: 1.38 (1.305) mg/dL
change from baseline in unadjusted TSB, LS Mean Difference versus placebo [5]: -3.57 mg/dL
change from baseline in unadjusted TSB, Mean (SD) [6]: −4.28 (3.828) mg/dL
change from baseline in unadjusted TSB, Median [6]: -5.73 mg/dL
unadjusted TSB, Mean (SD) [6]: 5.31 (4.596) mg/dL
unadjusted TSB, Median [6]: 2.98 mg/dL
change from baseline in unadjusted TSB, LS Mean (SEM) [7]: −3.02 (1.524) mg/dL
change from baseline in unadjusted TSB, LS Mean Difference versus placebo [7]: -0.72 mg/dL
48 Hours/Early termination change from baseline in unadjusted TSB, LS mean difference [8]: -2.82 mg/dL
P-value of LS mean difference, change from baseline in unadjusted TSB [8]: 0.030
48 Hours/Early termination change from baseline in unadjusted TSB, Max [9]: 3.6 mg/dL
48 Hours/Early termination change from baseline in unadjusted TSB, Mean (SD) [9]: 0.40 (3.111) mg/dL
48 Hours/Early termination change from baseline in unadjusted TSB, Median [9]: 0.70 mg/dL
48 Hours/Early termination change from baseline in unadjusted TSB, Min [9]: -3.4 mg/dL
48 Hours/Early termination unadjusted TSB, Max [9]: 13.4 mg/dL
48 Hours/Early termination unadjusted TSB, Mean (SD) [9]: 9.88 (2.807) mg/dL
48 Hours/Early termination unadjusted TSB, Median [9]: 10.00 mg/dL
48 Hours/Early termination unadjusted TSB, Min [9]: 5.6 mg/dL
48 Hours/Early termination change from baseline in unadjusted TSB, LS mean (SEM) (4.5 mg/kg, 48 Hours/Early termination, PP Population, LOCF, ANCOVA): 1.11 (1.095) mg/dL
6 hrs Percent Change from Baseline in TSB, Max [10]: 26.4%
6 hrs Percent Change from Baseline in TSB, Mean (SD) [10]: 17.33 (5.373) %
6 hrs Percent Change from Baseline in TSB, Min [10]: 10.7%
6 hrs TSB, Max [10]: 14.8 mg/dL
6 hrs TSB, Mean (SD) [10]: 11.31 (2.237) mg/dL
6 hrs TSB, Min [10]: 7.6 mg/dL
12 hrs Percent Change from Baseline in TSB, Max [11]: 29.2%
12 hrs Percent Change from Baseline in TSB, Mean (SD) [11]: 20.16 (6.326) %
12 hrs Percent Change from Baseline in TSB, Min [11]: 9.8%
12 hrs TSB, Max [11]: 14.8 mg/dL
12 hrs TSB, Mean (SD) [11]: 11.54 (2.067) mg/dL
12 hrs TSB, Min [11]: 8.0 mg/dL
24 hrs Percent Change from Baseline in TSB, Max [12]: 43.8%
24 hrs Percent Change from Baseline in TSB, Mean (SD) [12]: 10.75 (23.016) %
24 hrs Percent Change from Baseline in TSB, Median [12]: 12.15%
24 hrs Percent Change from Baseline in TSB, Min [12]: −14.8%
24 hrs TSB, Max [12]: 14.0 mg/dL
24 hrs TSB, Mean (SD) [12]: 10.52 (2.668) mg/dL
24 hrs TSB, Min [12]: 7.7 mg/dL
48 hrs Percent Change from Baseline in TSB, Max [13]: 56.3%
48 hrs Percent Change from Baseline in TSB, Mean (SD) [13]: 14.87 (33.167) %
48 hrs Percent Change from Baseline in TSB, Min [13]: −37.7%
48 hrs TSB, Max [13]: 13.4 mg/dL
48 hrs TSB, Mean (SD) [13]: 10.69 (2.708) mg/dL
48 hrs TSB, Min [13]: 5.6 mg/dL
mean TSB levels (4.5 mg/kg, 14 days after treatment (text, not LOCF table)): 2.94 mg/dL
Baseline unadjusted TSB, Max [14]: 12.8 mg/dL
Baseline unadjusted TSB, Mean (SD) [14]: 9.47 (2.319) mg/dL
Baseline unadjusted TSB, Median [14]: 9.00 mg/dL
Baseline unadjusted TSB, Min [14]: 6.4 mg/dL
Baseline TSB, Max [15]: 12.8 mg/dL
Baseline TSB, Mean (SD) [15]: 9.59 (1.911) mg/dL
Baseline TSB, Min [15]: 6.4 mg/dL
time after administration at which an effect begins (bilirubin levels, FIG. 7): 6 to 12 h

Reference: patent US20130158362A1 (INFACARE PHARMACEUTICAL CORPORATION, priority 2011, published 2013)
